{
  "source": "patent US20250136579A1",
  "about": "“SALTS AND FREE BASES OF BIFUNCTIONAL COMPOUND AND POLYMORPH FORMS THEREOF” (NURIX THERAPEUTICS, INC., priority 2023, published 2025)",
  "key": {"[1]": {"settings": "acid (counterion) used in salt screen; cited from earlier work"}, "[2]": {"assay": "water solubility, visual solubility estimation using pipet method", "format": "physicochemical", "settings": "thermodynamic from solid"}, "[3]": {"assay": "overnight slurry in solvent, NMR analysis of recovered solids", "format": "physicochemical"}, "[4]": {"assay": "dynamic vapor sorption (DVS) analysis, TA Instruments Q5000, 5 to 95% RH", "format": "physicochemical", "procedure": "For Fumarate Salt Form A, Dynamic vapor sorption (DVS) analysis was carried out using a TA Instruments Q5000 Dynamic Vapor Sorption analyser. The instrument was calibrated with standard weights and a sodium bromide standard for humidity. Approximately 10-25 mg of sample was loaded into a metal coated quartz pan for analysis. The sample was analysed at 25° C. with a maximum equilibration time of one hour in 10% relative humidity (RH) steps from 5 to 95% RH (adsorption cycle) and from 95 to 5% RH (desorption cycle). The movement from one step to the next occurred either after satisfying the equilibrium criterion of 0.01% weight change, or when the equilibrium criterion was not met after one hour. The percent weight change values were then calculated."}, "[5]": {"assay": "kinetic solubility at pH 7.4", "format": "physicochemical", "settings": "pH 7.4, aqueous buffer, kinetic from dmso stock", "from_the_text": "(§1) The free base compound of Formula (I) was used as a starting material. The compound of Formula (I) (MW 806.973 g/mol) is a chimeric targeting molecule that has two ligands connected by a linker."}, "[6]": {"assay": "pKa (base) of the free base compound of Formula (I)", "format": "physicochemical", "from_the_text": "as §1"}, "[7]": {"assay": "estimated solubility by adding test solvent in aliquots to weighed solid, visual inspection", "format": "physicochemical", "settings": "thermodynamic from solid, read-out: Solubility", "procedure": "Solubilities of the compound of Formula (I), free base, in a few solvents were estimated. The experiments were carried out by adding the test solvent in aliquots to weighed portions of solid. Whether dissolution had occurred was judged by visual inspection after addition of each solvent aliquot. Solubility numbers were calculated by dividing the weight of the sample by total amount of solvent used to dissolve the sample. The actual solubilities may be greater than the numbers calculated because of the use of solvent aliquots that were too large or because of slow dissolution rates. […] The solubility number is expressed as “greater than or equal to” if dissolution occurred on addition of the first solvent aliquot.\nSolubilities of Fumarate Salt Form A are shown in Tables 8 and 9, in selected solvents and aqueous binary mixtures.\nSolubilities of the compound of Formula (I), Fumarate Salt Form A, are shown in Tables 15 and 16, in selected solvents and aqueous binary mixtures."}},
  "note": "Where two headings read alike, the source gives them in different places.",
  "data": [
    {"smiles": "O=C(O)CNC(=O)c1ccccc1", "note": "[hippuric]", "values": [
      {"measurement": "pKa", "setting": "[1]", "result": 3.55}
    ]},
    {"smiles": "CN1CCN([C@@H]2CCCN(c3cnc(C(N)=O)c(Nc4ccc(C5CCN(CC6CCN(c7ccc(C(=O)N[C@H]8CCC(=O)NC8=O)nc7)CC6)CC5)cc4)n3)C2)C1=O.O=C(O)/C=C\\C(=O)O", "note": "[Maleate Salt Form A]", "values": [
      {"measurement": "solubility", "setting": "[2]", "result": "< 300", "unit": "µg/mL"},
      {"measurement": "1H NMR, post-EtOH slurry", "setting": "[3]; slurry stirred overnight in EtOH", "result": "Consistent with a 1:1 salt"},
      {"measurement": "1H NMR, post-water slurry", "setting": "[3]; slurry stirred overnight in water", "result": "Not consistent with 1:1 salt (0.4"}
    ]},
    {"smiles": "CN1CCN([C@@H]2CCCN(c3cnc(C(N)=O)c(Nc4ccc(C5CCN(CC6CCN(c7ccc(C(=O)N[C@H]8CCC(=O)NC8=O)nc7)CC6)CC5)cc4)n3)C2)C1=O", "note": "[free base compound of Formula (I)]", "values": [
      {"measurement": "DVS: weight gain up to 95% RH", "setting": "[4]; 25° C.", "result": "approximately 7%"},
      {"measurement": "DVS: hygroscopicity", "setting": "[4]; 25° C., 5 to 95% RH", "result": "moderately hygroscopic"},
      {"measurement": "Post-DVS XRPD", "setting": "[4]; material after sorption/desorption cycle", "result": "unchanged"},
      {"measurement": "solubility kinetic", "setting": "[5]", "result": 10, "unit": "µM"},
      {"measurement": "pKa", "setting": "[6]", "result": "~6.5"},
      {"measurement": "solubility", "setting": "[7]; aqueous with cosolvent or surfactant or cyclodextrin, 1,4-dioxane/H2O (60/40), aw 1.0, at 60° C.", "result": 2000, "unit": "µg/mL"},
      {"measurement": "solubility", "setting": "[7]; aqueous with cosolvent or surfactant or cyclodextrin, 1-pentanol/H2O (saturated) (80:20 - 2 phase system), at 60° C.", "result": "< 3000", "unit": "µg/mL"},
      {"measurement": "solubility", "setting": "[7]; aqueous with cosolvent or surfactant or cyclodextrin, 2-propanol/H2O (80/20), aw 0.9, at 60° C.", "result": "< 2000", "unit": "µg/mL"},
      {"measurement": "solubility", "setting": "[7]; aqueous with cosolvent or surfactant or cyclodextrin, acetone/H2O (70/30), aw 0.85, at 60° C.", "result": "< 2000", "unit": "µg/mL"},
      {"measurement": "solubility", "setting": "[7]; aqueous with cosolvent or surfactant or cyclodextrin, acetonitrile/H2O (45/55), aw 0.9, at 60° C.", "result": "< 2000", "unit": "µg/mL"},
      {"measurement": "solubility", "setting": "[7]; aqueous with cosolvent or surfactant or cyclodextrin, ethanol/H2O (70/30), aw 0.8, at 60° C.", "result": "< 2000", "unit": "µg/mL"},
      {"measurement": "solubility", "setting": "[7]; aqueous with cosolvent or surfactant or cyclodextrin, methanol/H2O (50/50), aw 0.75, at 60° C.", "result": "< 2000", "unit": "µg/mL"},
      {"measurement": "solubility", "setting": "[7]; aqueous with cosolvent or surfactant or cyclodextrin, tetrahydrofuran/H2O (80/20), aw 1, at RT", "result": 5000, "unit": "µg/mL"},
      {"measurement": "solubility", "setting": "[7]; organic solvent or mixture, 1,2-dichloroethane, at 45° C.", "result": 2000, "unit": "µg/mL"},
      {"measurement": "solubility", "setting": "[7]; organic solvent or mixture, 1,4-dioxane, solubility without temperature", "result": 6000, "unit": "µg/mL"},
      {"measurement": "solubility", "setting": "[7]; organic solvent or mixture, 2-methyltetrahydrofuran (2-MeTHF), solubility without temperature", "result": "< 1000", "unit": "µg/mL"},
      {"measurement": "solubility", "setting": "[7]; organic solvent or mixture, 2-propanol (2-PrOH), solubility without temperature", "result": "< 1000", "unit": "µg/mL"},
      {"measurement": "solubility", "setting": "[7]; organic solvent or mixture, acetone, solubility without temperature", "result": "< 1000", "unit": "µg/mL"},
      {"measurement": "solubility", "setting": "[7]; organic solvent or mixture, acetonitrile (ACN), solubility without temperature", "result": "< 1000", "unit": "µg/mL"},
      {"measurement": "solubility", "setting": "[7]; organic solvent or mixture, anisole, at 60° C.", "result": "< 1000", "unit": "µg/mL"},
      {"measurement": "solubility", "setting": "[7]; organic solvent or mixture, cyclohexane, at 60° C.", "result": "< 2000", "unit": "µg/mL"},
      {"measurement": "solubility", "setting": "[7]; organic solvent or mixture, dichloromethane (DCM), solubility without temperature", "result": 17000, "unit": "µg/mL"},
      {"measurement": "solubility", "setting": "[7]; organic solvent or mixture, diethyl ether (Et2O), solubility without temperature", "result": "< 1000", "unit": "µg/mL"},
      {"measurement": "solubility", "setting": "[7]; organic solvent or mixture, dimethylformamide (DMF), solubility without temperature", "result": 21000, "unit": "µg/mL"},
      {"measurement": "solubility", "setting": "[7]; organic solvent or mixture, dimethylsulfoxide (DMSO), solubility without temperature", "result": 9000, "unit": "µg/mL"},
      {"measurement": "solubility", "setting": "[7]; organic solvent or mixture, ethanol (EtOH), solubility without temperature", "result": "< 1000", "unit": "µg/mL"},
      {"measurement": "solubility", "setting": "[7]; organic solvent or mixture, ethyl acetate (EtOAc), solubility without temperature", "result": "< 1000", "unit": "µg/mL"},
      {"measurement": "solubility", "setting": "[7]; organic solvent or mixture, heptane, at 60° C.", "result": "< 2000", "unit": "µg/mL"},
      {"measurement": "solubility", "setting": "[7]; organic solvent or mixture, methanol (MeOH), solubility without temperature", "result": "< 1000", "unit": "µg/mL"},
      {"measurement": "solubility", "setting": "[7]; organic solvent or mixture, methyl acetate (MeOAc), at 60° C.", "result": "< 1000", "unit": "µg/mL"},
      {"measurement": "solubility", "setting": "[7]; organic solvent or mixture, methyl ethyl ketone (MEK), solubility without temperature", "result": "< 1000", "unit": "µg/mL"},
      {"measurement": "solubility", "setting": "[7]; organic solvent or mixture, methyl tert-butyl ether (MTBE), at 60° C.", "result": "< 1000", "unit": "µg/mL"},
      {"measurement": "solubility", "setting": "[7]; organic solvent or mixture, tetrahydrofuran (THF), solubility without temperature", "result": 9000, "unit": "µg/mL"},
      {"measurement": "solubility", "setting": "[7]; organic solvent or mixture, toluene, at 60° C.", "result": "< 2000", "unit": "µg/mL"},
      {"measurement": "solubility", "setting": "[7]; water, solubility without temperature", "result": "< 1000", "unit": "µg/mL"}
    ]},
    {"smiles": "O=C(O)[C@H](O)[C@@H](O)[C@H](O)[C@H](O)CO", "note": "[D-gluconic]", "values": [
      {"measurement": "pKa", "setting": "[1]", "result": 3.76}
    ]}
  ]
}
